Results taken from paper PMC10800023 (Human Molecular Genetics, 2023).
Each block holds one compound with its values, some of them ahead of it.

How the values were obtained:
[1] = tested on: human P-gp (MDR1); assay: MDR1-MDCK permeability / P-gp efflux assay
Method: (§1) To measure transport by P-gp, Madin-Darby canine kidney (MDCK) cells that had been transfected with the human P-gp (MDR1) gene were plated in a Transwell plate and cultured until polarized. MDCK cells that are not transfected with human P-gp were used as a control. Compounds were added to either the apical or the basolateral side of the cells, and transport across the membrane was measured.
(§2) Testing for permeability and MDR1 substrate assessment was done in MDCK cells transfected to overexpress human MDR1 gene that encodes efflux transporter protein (P-gp). […] Briefly, cells were maintained in Dulbecco’s modified Eagle medium (DMEM) with 10% fetal bovine serum and 1% penicillin/streptomycin in a humidified incubator at 37°C with 5% CO2. The study was performed by Absorption Systems (now Pharmaron; Exton, PA). The MDR1-MDCK and MDCK control cell lines were seeded into 12-well plates for 7 days. Integrity of monolayer tight junctions was monitored preincubation by transepithelial electrical resistance (TEER) measurement. […] The samples were withdrawn at t = 0 and 60 min from the receiver and donor compartments. Compound levels were measured by LC/MS–MS. Additionally, post-assay, cell monolayer integrity was checked with Lucifer Yellow permeability measurement. Transport assay low- and high-permeability control compounds were run in parallel for assay validation. Papp values were calculated considering compound concentrations across the monolayer and cell surface area. Efflux ratios were calculated based on Papp B > A over Papp A > B. The difference between the MDR1-MDCK and the MDCK cell efflux ratios was also calculated. […] Compounds were classified by Absorption Systems/Pharmaron as follows: […]

[2] = tested on: MDCK cells; assay: MDCK control cell permeability (not transfected with human P-gp); conditions: dog, MDCK-MDR1, 60 min, pH 7.4
Method: as §1, §2

[3] = tested on: P-gp (MDR1); assay: MDR1-MDCK permeability / P-gp efflux assay; conditions: MDCK-MDR1, pH 7.4
Method: as §1, §2

[4] = MDCK control cell permeability (not transfected with human P-gp); conditions: dog, pH 7.4
Method: as §1, §2

[5] = dog, MDCK-MDR1, 60 min, 1 μM, pH 7.4
[6] = dog, MDCK-MDR1, 60 min, 10 μM, pH 7.4

- Papp values ([1]; MDCK-MDR1): < 3 ×10⁻⁶ cm/s
- Apical to Basolateral MDR1-MDCK [1, 5]: 1.08 10 ^ −6 cm/s
- Basolateral to Apical MDR1-MDCK [1, 5]: 72.8 10 ^ −6 cm/s
- Apical to Basolateral MDR1-MDCK [1, 6]: 1.11 10 ^ −6 cm/s
- Basolateral to Apical MDR1-MDCK [1, 6]: 73.6 10 ^ −6 cm/s
- Apical to Basolateral MDCK ([2]; 1 μM): 12.4 10 ^ −6 cm/s
- Basolateral to Apical MDCK ([2]; 1 μM): 15.5 10 ^ −6 cm/s
- Apical to Basolateral MDCK ([2]; 10 μM): 6.28 10 ^ −6 cm/s
- Basolateral to Apical MDCK ([2]; 10 μM): 8.8 10 ^ −6 cm/s
Compound: CC1=N[C@]2(C(=O)CO)[C@@H](C[C@H]3[C@@H]4CCC5=CC(=O)C=C[C@]5(C)[C@H]4[C@@H](O)C[C@@]32C)O1 [21-Des-deflazacort]

- Papp A→B at 60 min [3]: 0.0521 to 0.0558 ×10⁻⁶ cm/s
- Papp B→A at 60 min [3]: 19.6 to 20.7 ×10⁻⁶ cm/s
- efflux ratio at 60 min [3]: 352 to 398
Compound: C[C@H]1O[C@@H](O[C@H]2[C@@H](O)C[C@H](O[C@H]3[C@@H](O)C[C@H](O[C@H]4CC[C@@]5(C)[C@H](CC[C@@H]6[C@@H]5C[C@@H](O)[C@]5(C)[C@@H](C7=CC(=O)OC7)CC[C@]65O)C4)O[C@@H]3C)O[C@@H]2C)C[C@H](O)[C@@H]1O [digoxin]

- Papp at 60 min [3]: < 3 ×10⁻⁶ cm/s
- Apical to Basolateral MDR1-MDCK ([1]; 10 μM): 0.499 10 ^ −6 cm/s
- brain penetration classification ([1]; 1 and 10 μM, from Papp (A-to-B) and efflux ratio): low
- Papp A→B at 60 min, 1 μM ([1]; dog, MDCK-MDR1, pH 7.4): 0.263 ×10⁻⁶ cm/s
- Papp B→A at 60 min, 1 μM ([1]; dog, MDCK-MDR1, pH 7.4): 43.8 ×10⁻⁶ cm/s
- Papp B→A at 60 min, 10 μM ([1]; dog, MDCK-MDR1, pH 7.4): 51.8 ×10⁻⁶ cm/s
- Papp A→B at 60 min, 1 μM [4]: 2.83 ×10⁻⁶ cm/s
- Papp A→B at 60 min, 10 μM [4]: 2.09 ×10⁻⁶ cm/s
- Papp B→A at 60 min, 1 μM [4]: 3.42 ×10⁻⁶ cm/s
- Papp B→A at 60 min, 10 μM [4]: 2.86 ×10⁻⁶ cm/s
Compound: C[C@]12C=CC(=O)C=C1CC[C@@H]1[C@@H]2C(=O)C[C@@]2(C)[C@H]1CC[C@]2(O)C(=O)CO [Prednisone]

- Papp at 60 min [3]: 19.7 to 21.4 ×10⁻⁶ cm/s
Compound: CC(C)NCC(O)COc1cccc2ccccc12 (centres unmarked) [propranolol]
